Assay results published in patent US10653701B2, “Substituted quinazolines for inhibiting kinase activity” (NeuPharma, Inc., priority 2013, dated 2020).

Legend:
H1975 tumor xenograft = test: Inhibition of tumor growth in H1975 tumor xenograft model; format: in vivo, BALB/c female nude mice; conditions: QD x 14
Description: H1975 cells were implanted in BALB/c female nude mice and grown as tumor xenografts. When tumors achieved 120-200 mm^3, mice were assigned into treatment and control groups using randomized block design based upon their tumor volumes. Each group contained 6 tumor-bearing mice. Tumors were measured twice weekly in two dimensions using a caliper, and the tumor volume was calculated from two-dimensional measurements using the equation V=0.5×a×b^2 where a and b are the long and short diameters of the tumor, respectively. Relative tumor volume (RTV) was defined as TVt/TVi, the ratio of the volume on a given day (TVt) and the volume at the start of treatment (TVi). Relative tumor growth rate (T/C) was defined as RTVT/RTVC, the ratio of relative tumor volume of treatment group (RTVT) and relative tumor volume of control group (RTVC) on a given day. Inhibition of tumor growth in a H1975 tumor xenograft model by some compounds is shown below in Table 6 and Table 7.

FGFR1 = FGFR1 (Homo sapiens (Human), UniProt P11362); test: Z'-LYTE kinase inhibition assay, FGFR1; format: biochemical; conditions: compound at 0.041 μM
Description: Inhibitory activities of compounds against BTK, EGFR and EGFR mutants (EGFR L858R, EGFR T790M, EGFR L858R/T790M), FGFR1, FGFR2, JAK2, JAK3 and KDR were measured by Invitrogen using Z′-LYTE® Method as briefly described in the following.
Test Compounds are screened in 1% DMSO (final) in the well. For 10 point titrations, 3-fold serial dilutions are conducted from the starting concentration. All ATP Solutions are diluted to a 4× working concentration in Kinase Buffer (50 mM HEPES pH 7.5, 0.01% BRIJ-35, 10 mM MgCl2, 1 mM EGTA). Peptide/Kinase Mixtures are diluted to a 2× working concentration in the appropriate Kinase Buffers as described below.
(v) Peptide/Kinase Mixtures for measurement of FGFR1:
The 2×FGFR1/Tyr 04 mixture is prepared in 50 mM HEPES pH 7.5, 0.01% BRIJ-35, 10 mM MgCl2, 4 mM MnCl2, 1 mM EGTA, 2 mM DTT. The final 10 μL Kinase Reaction consists of 0.41-3.5 ng FGFR1 and 2 μM Tyr 04 in 50 mM HEPES pH 7.5, 0.01% BRIJ-35, 10 mM MgCl2, 2 mM MnC12, 1 mM EGTA, 1 mM DTT. After the 1 hour Kinase Reaction incubation, 5 μL of a 1:64 dilution of Development Reagent B is added.
Reaction starts by 30-second shaking of mixture consisting of 2.5 μL 4× test compound, 5 μL 2× kinase reaction mixture and 2.5 μL 4×ATP Solution on Bar-coded Corning, low volume NBS, black 384-well plate (Corning Cat. #3676). […] Finally fluorescence is read by plate reader. […]

[1] = Table 6, 30 mg/kg, Intraperitoneal injection

FGFR1, sequence (P11362 22-822): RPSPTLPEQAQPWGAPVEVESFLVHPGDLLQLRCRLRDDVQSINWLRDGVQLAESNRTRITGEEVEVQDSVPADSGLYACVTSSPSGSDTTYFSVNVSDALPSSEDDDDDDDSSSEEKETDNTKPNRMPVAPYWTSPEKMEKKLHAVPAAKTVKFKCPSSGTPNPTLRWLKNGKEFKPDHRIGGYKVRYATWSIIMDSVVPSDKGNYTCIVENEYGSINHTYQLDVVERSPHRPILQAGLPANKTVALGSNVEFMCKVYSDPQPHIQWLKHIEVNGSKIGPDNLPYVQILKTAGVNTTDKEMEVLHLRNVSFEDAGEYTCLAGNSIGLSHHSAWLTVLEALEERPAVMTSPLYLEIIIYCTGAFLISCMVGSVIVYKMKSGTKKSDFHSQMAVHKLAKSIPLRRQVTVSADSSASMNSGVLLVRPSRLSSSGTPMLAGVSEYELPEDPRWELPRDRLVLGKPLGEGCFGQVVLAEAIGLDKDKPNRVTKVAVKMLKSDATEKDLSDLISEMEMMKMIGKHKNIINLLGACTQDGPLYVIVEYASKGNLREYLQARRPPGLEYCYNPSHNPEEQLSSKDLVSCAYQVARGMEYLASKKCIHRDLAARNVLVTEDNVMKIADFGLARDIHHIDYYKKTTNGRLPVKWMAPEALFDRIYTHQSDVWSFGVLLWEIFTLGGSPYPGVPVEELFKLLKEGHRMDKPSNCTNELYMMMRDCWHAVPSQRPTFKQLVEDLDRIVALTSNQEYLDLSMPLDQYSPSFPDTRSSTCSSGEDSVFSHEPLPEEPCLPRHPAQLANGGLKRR

Row | Structure (SMILES) | T/C (H1975 tumor xenograft; [1]) | T/C (H1975 tumor xenograft; Table 7, 60 mg/kg, Oral) | other results
1 | C=CC(=O)Nc1cccc(-c2cccc3cnc(Nc4ccc(N5CCN(C)CC5)cc4)nc23)c1 [Example C021, N-(3-(2-((4-(4-methylpiperazin-1-yl)phenyl)amino)quinazolin-8-yl)phenyl)acrylamide] | – | – | T/C (H1975 tumor xenograft; Table 6, 60 mg/kg, Oral): 30.5%
2 | C=CC(=O)Nc1cccc(-c2cccc3cnc(Nc4ccc(N5CCN(C(C)=O)CC5)cc4)nc23)c1 [Example C032, N-(3-(2-((4-(4-acetylpiperazin-1-yl)phenyl)amino)quinazolin-8-yl)phenyl)acrylamide] | – | – | inhibition at 0.041 µM (FGFR1): > 50%
3 | C=CC(=O)Nc1cccc(-c2cccc3cnc(Nc4ccc(N5CCN(C)CC5)nc4)nc23)c1 [Example C041, N-(3-(2-((6-(4-methylpiperazin-1-yl)pyridin-3-yl)amino)quinazolin-8-yl)phenyl)acrylamide] | 48.7% | – | –
4 | C=CC(=O)Nc1cccc(-c2cccc3cnc(Nc4ccc(N5CCN(CCO)CC5)cc4)nc23)c1 [Example C059, N-(3-(2-((4-(4-(2-hydroxyethyl)piperazin-1-yl)phenyl)amino)quinazolin-8-yl)phenyl)acrylamide] | – | – | T/C (H1975 tumor xenograft; Table 6, 60 mg/kg, Oral): 35.3%
5 | C=CC(=O)Nc1cccc(-c2cccc3cnc(Nc4ccc(NC5CN(CCF)C5)cc4)nc23)c1 [Example C103, N-(3-(2-((4-((1-(2-fluoroethyl)azetidin-3-yl)amino)phenyl)amino)quinazolin-8-yl)phenyl)acrylamide] | 35.8% | – | –
6 | C=CC(=O)Nc1cccc(-c2cccc3cnc(Nc4ccc(OCCOC)cc4)nc23)c1 [Example C107, N-(3-(2-((4-(2-methoxyethoxy)phenyl)amino)quinazolin-8-yl)phenyl)acrylamide] | 63.6% | – | –
7 | C=CC(=O)Nc1cccc(-c2cccc3cnc(Nc4ccc(N5CCN(CCO)CC5)cc4F)nc23)c1 [Example C147, N-(3-(2-((2-fluoro-4-(4-(2-hydroxyethyl)piperazin-1-yl)phenyl)amino)quinazolin-8-yl)phenyl)acrylamide] | – | 55.7% | –
8 | C=CC(=O)Nc1cccc(-c2cccc3cnc(Nc4ccc(N5CCN(CCO)CC5)c(F)c4F)nc23)c1 [Example C151, N-(3-(2-((2,3-difluoro-4-(4-(2-hydroxyethyl)piperazin-1-yl)phenyl)amino)quinazolin-8-yl)phenyl)acrylamide] | – | 28.6% | –
9 | C=CC(=O)Nc1cccc(-c2cccc3cnc(Nc4ccc(N5CCN(C)CC5)c(F)c4F)nc23)c1 [Example C156, N-(3-(2-((2,3-difluoro-4-(4-methylpiperazin-1-yl)phenyl)amino)quinazolin-8-yl)phenyl)acrylamide] | – | 36.8% | –
